In the NIST ThermoML archive (doi:10.1021/acs.jced.8b00488):
± gives the expanded uncertainty stated by the source.

Conditions: Liquid, Ebulliometric method (Recirculating still)

Structure (SMILES)	vapor or sublimation pressure (374.12 K)	vapor or sublimation pressure (329.33 K)
C[Si](C)(C)O[Si](C)(C)C [hexamethyldisiloxane]	101.3 ± 0.8 kPa	–
CC(C)=O [acetone]	–	101.3 ± 0.8 kPa
